Reference: PubChem BioAssay AID651630 (Sanford-Burnham Center for Chemical Genomics, 2012)
The source made the active and inactive calls.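 How the source made its calls: active means lipid-stain IC50 at or below a set limit, with nuclear-stain toxicity IC50 at least five times higher; inactive means the rest.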

How the values were obtained:
TAG = TAG lipid buildup inhibition with viability readout – cell-based, panel, Nile Red and DAPI fluorescence, H9c2, dose response (AID 651630); settings: H9c2 cells, Nile Red TAG fluorescence, oleic acid;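 further: cells exposed to compound overnight before fixation and staining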
DAPI = assay: as above; settings: H9c2 cells, DAPI nuclear fluorescence (cytotoxicity counter-readout), oleic acid

SMILES	IC50 (TAG; mean of runs)	IC50 (TAG; run 1) [µM]	IC50 (TAG; run 2) [µM]	IC50 cytotoxicity (DAPI nuclear signal decrease) (DAPI; mean of runs)	IC50 cytotoxicity (DAPI nuclear signal decrease) (DAPI; run 1) [µM]	IC50 cytotoxicity (DAPI nuclear signal decrease) (DAPI; run 2) [µM]
CCCc1cc(N2CCCC2)n2nc(C)c(-c3ccccc3)c2n1	> 25 µM (inactive)	> 25	> 25	> 25 µM (inactive)	> 25	> 25
CCC(C)(C)NC(=O)C(c1ccc(OC)cc1)N(Cc1cccs1)C(=O)CCC(=O)Nc1cc(C)on1 (stereo not drawn)	13.3 µM	13.1	13.5	> 25 µM (inactive)	> 25	> 25
CC(C)C[C@H]1C(=O)N2CCC[C@H]2[C@]2(O)O[C@](NC(=O)C3C=C4c5cccc6[nH]c(Br)c(c56)C[C@H]4N(C)C3)(C(C)C)C(=O)N12 (stereo partly drawn)	6.4 µM	5.42	7.37	> 25 µM (inactive)	> 25	> 25
O=C(C[C@H]1C[C@H](C(=O)N2CCCCC2)[C@@]2(CCc3ccccc3)c3[nH]c4ccc(Cl)cc4c3CCN2C1=O)NCc1cccc(C(F)(F)F)c1	3.78 µM	2.76	4.8	–	> 25	> 25
O=[N+]([O-])c1ccccc1/C=C/C=N/Nc1ccc(S(=O)(=O)Nc2ccc(Cl)cc2)cc1[N+](=O)[O-]	4.41 µM	3.5	5.32	–	> 25	> 25
O=C(CC1C[C@H](C(=O)N2CCCCC2)[C@@]2(CCc3ccccc3)c3[nH]c4ccccc4c3CCN2C1=O)NCc1cccc(C(F)(F)F)c1 (stereo partly drawn)	5.34 µM	4.84	5.84	> 25 µM (inactive)	> 25	> 25
Cc1ccccc1NC(=O)CSc1nc(Nc2ccccc2)nc(N2CCOCC2)n1	12.9 µM	15.7	10	> 25 µM (inactive)	> 25	> 25
C=CCC[C@@H](Cc1ccc(F)cc1)C(=O)OC[C@@H](Cc1c[nH]c2ccccc12)NC(=O)[C@H](CC=C)CC(=O)N(CCO)Cc1ccccc1	6.99 µM	6.29	7.69	> 25 µM (inactive)	> 25	> 25
O=C(Nc1nc2ccc(C(=O)N3CCCCC3)cc2s1)C1CCCCC1	15.4 µM (inactive)	10.6	20.2	> 25 µM (inactive)	> 25	> 25
COc1ccc(NC(=O)Cn2c(=O)n(-c3ccc(CC(=O)NCc4ccco4)cc3)c(=O)c3ccccc32)cc1	–	24.7	> 25	> 25 µM (inactive)	> 25	> 25
COc1ccc(CC(N)c2csc(NC(=O)Nc3ccccc3-c3ccccc3)n2)cc1 (stereo not drawn)	–	> 25	15.5	17.6 µM (inactive)	19.3	15.9
COc1ccc(-c2nc(NC(=O)C3CCN(c4nc5ccccc5o4)CC3)sc2C)cc1	13 µM	15.6	10.4	> 25 µM (inactive)	> 25	> 25
CCOCCC(=O)Nc1ccc2c(c1)c(=O)n(C)n2-c1ccc2ccccc2c1	> 25 µM (inactive)	> 25	> 25	> 25 µM (inactive)	> 25	> 25
O=C(CSc1nc2ccc(Nc3nc(N4CCOCC4)nc(N4CCOCC4)n3)cc2s1)NCc1ccco1	7.1 µM	7.74	6.45	> 25 µM (inactive)	> 25	> 25
O=C1C(NS(=O)(=O)c2cccs2)=C(N2CCN(c3cccc(C(F)(F)F)c3)CC2)C(=O)c2ccccc21	5.88 µM	7.01	4.75	> 25 µM (inactive)	> 25	> 25
O=C(C[C@H]1C[C@H](C(=O)N2CCOCC2)[C@@]2(CCC3CCCC3)c3[nH]c4cc(-c5ccco5)ccc4c3CCN2C1=O)NCC12CC3CC(CC(C3)C1)C2	3.68 µM	4.04	3.32	–	> 25	> 25

SMILES	IC50 (TAG; mean of runs)	IC50 (TAG; run 1) [µM]	IC50 (TAG; run 2) [µM]	IC50 cytotoxicity (DAPI nuclear signal decrease) (DAPI; mean of runs)	IC50 cytotoxicity (DAPI nuclear signal decrease) (DAPI; run 1) [µM]	IC50 cytotoxicity (DAPI nuclear signal decrease) (DAPI; run 2) [µM]
COC(=O)c1c(NC(=S)NN2CCN(C)CC2)sc2c1CCC(C)C2 (stereo not drawn)	–	> 25	15.1	17.8 µM (inactive)	18.5	17.1
COc1cc(-c2cnc3c(NC=O)cc(-c4cccc(NC(C)=O)c4)cn23)cc(OC)c1OC	5.44 µM	4.6	6.28	> 25 µM (inactive)	> 25	> 25
CCCSc1nc(SCC(=O)NCc2ccccc2)c2c3c(sc2n1)COC(C)(CC)C3 (stereo not drawn)	> 25 µM (inactive)	> 25	> 25	> 25 µM (inactive)	> 25	> 25
O=C(N/N=C/c1cn(-c2ccccc2)nc1-c1cc2ccccc2o1)c1c[nH]c2ccccc12	13.1 µM	14.7	11.5	> 25 µM (inactive)	> 25	> 25
COc1ccc2nc3cc([N+](=O)[O-])ccc3c(NNc3ccc([N+](=O)[O-])cc3)c2c1	5.93 µM	10.4	1.44	> 25 µM (inactive)	> 25	> 25
CCOC(=O)c1c(CN2CCNCC2)nc2ccc(Cl)cc2c1-c1ccccc1	> 25 µM (inactive)	> 25	> 25	16.8 µM (inactive)	17.1	16.5
Cc1cc(N2CCN(Cc3cn(C)nc3-c3cccc(Cl)c3)CC2)cc(C)n1	–	> 25	22.5	> 25 µM (inactive)	> 25	> 25
COCCOC(=O)c1[nH]c2c(c1C)C(=O)CC(c1ccccc1)C2 (stereo not drawn)	> 25 µM (inactive)	> 25	> 25	> 25 µM (inactive)	> 25	> 25
COc1ccc(NC(=O)O[C@@H](C)[C@@H]2CN3CCc4c([nH]c5ccc(-c6ccc(OC)cc6)cc45)[C@@H]3C[C@@H]2N(C)C(=O)Nc2ccc(OC)cc2)cc1	8.04 µM	7.66	8.42	> 25 µM (inactive)	> 25	> 25
CC(C)CCNCC(O)CON=C1c2ccccc2-c2ccccc21 (stereo not drawn)	> 25 µM (inactive)	> 25	> 25	> 25 µM (inactive)	> 25	> 25
CC(C)Cc1nc2sc3c(NCc4ccco4)ncnc3c2c2c1COC(C)(C)C2	> 25 µM (inactive)	> 25	> 25	> 25 µM (inactive)	> 25	> 25
COc1cc(NC(=O)c2cc([N+](=O)[O-])ccc2NC(=O)CN2CCN(c3ccccn3)CC2)cc(OC)c1	12.6 µM	13.3	11.9	> 25 µM (inactive)	> 25	> 25
COc1ccc(C2NCCc3c2[nH]c2ccccc32)cc1CSc1nc2ccccc2s1 (stereo not drawn)	> 25 µM (inactive)	> 25	> 25	–	> 25	24.6
Cc1ccccc1NC(=O)CSc1nc2ccc(Nc3nc(N4CCOCC4)nc(N4CCOCC4)n3)cc2s1	10.7 µM	10.6	10.8	> 25 µM (inactive)	> 25	> 25
CCOC(=O)c1sc2nc(CSc3ccccc3)nc(NCCN(C)C)c2c1C	13.7 µM	12.4	14.9	> 25 µM (inactive)	> 25	> 25
COc1ccccc1NC(=O)Nc1nc(C(N)Cc2ccc(C(F)(F)F)cc2)cs1 (stereo not drawn)	–	16.1	> 25	> 25 µM (inactive)	> 25	> 25
